Assay results published in PubChem BioAssay (NCI).
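Results reflect a 48-hour exposure of cells in 96-well plates to compound at five concentrations. Abbreviation: GI50, concentration required for 50% inhibition of growth. TGI denotes the concentration required for complete inhibition of growth.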

Experiments:
Test in all cases: inhibition of tumour cell growth, NCI panel, 48 h
OVCAR-3 ovarian = tested on: OVCAR-3 ovarian
SNB-75 CNS = tested on: SNB-75 CNS
HOP-92 NSCLC = tested on: HOP-92 NSCLC
HOP-62 NSCLC = tested on: HOP-62 NSCLC
NCI-H522 lung = tested on: NCI-H522 lung
OVCAR-8 ovarian = tested on: OVCAR-8 ovarian
CCRF-CEM leukemia = tested on: CCRF-CEM leukemia
SW-620 colon = tested on: SW-620 colon
SF-295 CNS = tested on: SF-295 CNS
UACC-257 melanoma = tested on: UACC-257 melanoma
SF-268 CNS = tested on: SF-268 CNS
MCF7 breast = tested on: MCF7 breast
COLO 205 colon = tested on: COLO 205 colon
NCI-H23 lung = tested on: NCI-H23 lung
UACC-62 melanoma = tested on: UACC-62 melanoma
LOX IMVI melanoma = tested on: LOX IMVI melanoma
SR leukemia = tested on: SR leukemia
SK-MEL-5 melanoma = tested on: SK-MEL-5 melanoma
EKVX NSCLC = tested on: EKVX NSCLC
HT29 colon = tested on: HT29 colon
DU-145 prostate = tested on: DU-145 prostate
UO-31 renal = tested on: UO-31 renal
MDA-MB-231 breast = tested on: MDA-MB-231 breast
SK-OV-3 ovarian = tested on: SK-OV-3 ovarian
NCI/ADR-RES ovarian = tested on: NCI/ADR-RES ovarian
CAKI-1 renal = tested on: CAKI-1 renal
A549 NSCLC = tested on: A549 NSCLC
HCT-15 colon = tested on: HCT-15 colon
HCC-2998 colon = tested on: HCC-2998 colon
NCI-H460 lung = tested on: NCI-H460 lung
K-562 leukemia = tested on: K-562 leukemia
HS 578T breast = tested on: HS 578T breast
SF-539 CNS = tested on: SF-539 CNS
T-47D breast = tested on: T-47D breast
SNB-19 CNS = tested on: SNB-19 CNS
SK-MEL-28 melanoma = tested on: SK-MEL-28 melanoma
HCT-116 colon = tested on: HCT-116 colon
PC-3 prostate = tested on: PC-3 prostate
NCI-H226 lung = tested on: NCI-H226 lung
IGROV1 ovarian = tested on: IGROV1 ovarian
RXF 393 renal = tested on: RXF 393 renal
TK-10 renal = tested on: TK-10 renal
MOLT-4 leukemia = tested on: MOLT-4 leukemia
RPMI-8226 leukemia = tested on: RPMI-8226 leukemia
BT-549 breast = tested on: BT-549 breast
U251 CNS = tested on: U251 CNS
MALME-3M melanoma = tested on: MALME-3M melanoma
HL-60(TB) leukemia = tested on: HL-60(TB) leukemia
ACHN renal = tested on: ACHN renal
A498 renal = tested on: A498 renal
KM12 colon = tested on: KM12 colon
OVCAR-5 ovarian = tested on: OVCAR-5 ovarian
SK-MEL-2 melanoma = tested on: SK-MEL-2 melanoma
M14 melanoma = tested on: M14 melanoma
786-0 renal = tested on: 786-0 renal
SN12C renal = tested on: SN12C renal
OVCAR-4 ovarian = tested on: OVCAR-4 ovarian

Molecule `Nc1nc2cc(O)ccc2n2cc3c(F)cccc3c12` has a GI50 (OVCAR-3 ovarian) of 6.21 µM, a TGI (OVCAR-3 ovarian) greater than 100 µM and a GI50 (SNB-75 CNS) of 1.44 µM. The TGI (SNB-75 CNS) was 7.34 µM, the GI50 (HOP-92 NSCLC) was 2.43 µM and the TGI (HOP-92 NSCLC) was greater than 85.6 µM. The GI50 (HOP-62 NSCLC) was 2.14 µM, the TGI (HOP-62 NSCLC) was greater than 100 µM and the GI50 (NCI-H522 lung) was 1.22 µM. It also gave a TGI (NCI-H522 lung) greater than 100 µM, a GI50 (OVCAR-8 ovarian) of 3.47 µM and a TGI (OVCAR-8 ovarian) greater than 100 µM. For the same molecule, the GI50 (CCRF-CEM leukemia) was 2.28 µM, the TGI (CCRF-CEM leukemia) was greater than 100 µM and the GI50 (SW-620 colon) was 0.493 µM. For the same molecule, the TGI (SW-620 colon) was greater than 100 µM, the GI50 (SF-295 CNS) was 2.46 µM and the TGI (SF-295 CNS) was greater than 100 µM. It also gave a GI50 (UACC-257 melanoma) of 4.37 µM, a TGI (UACC-257 melanoma) greater than 100 µM and a GI50 (SF-268 CNS) of 1.98 µM. For the same molecule, the TGI (SF-268 CNS) was greater than 100 µM, the GI50 (MCF7 breast) was 1.26 µM and the TGI (MCF7 breast) was greater than 100 µM. It also gave a GI50 (COLO 205 colon) of 5.86 µM, a TGI (COLO 205 colon) greater than 100 µM and a GI50 (NCI-H23 lung) of 3.91 µM. It also gave a TGI (NCI-H23 lung) greater than 100 µM, a GI50 (UACC-62 melanoma) of 1.23 µM and a TGI (UACC-62 melanoma) greater than 100 µM. For the same molecule, the GI50 (LOX IMVI melanoma) was 1.02 µM, the TGI (LOX IMVI melanoma) was greater than 100 µM and the GI50 (SR leukemia) was 0.462 µM. The TGI (SR leukemia) was 32.8 µM, the GI50 (SK-MEL-5 melanoma) was 0.334 µM and the TGI (SK-MEL-5 melanoma) was greater than 100 µM. It also gave a GI50 (EKVX NSCLC) of 3.38 µM, a TGI (EKVX NSCLC) greater than 100 µM and a GI50 (HT29 colon) of 4.46 µM. It also gave a TGI (HT29 colon) greater than 100 µM, a GI50 (DU-145 prostate) of 6.38 µM and a TGI (DU-145 prostate) greater than 100 µM. It also gave a GI50 (UO-31 renal) of 0.917 µM, a TGI (UO-31 renal) greater than 79.8 µM and a GI50 (MDA-MB-231 breast) of 4.74 µM. For the same molecule, the TGI (MDA-MB-231 breast) was greater than 100 µM, the GI50 (SK-OV-3 ovarian) was 2.37 µM and the TGI (SK-OV-3 ovarian) was greater than 100 µM. The GI50 (NCI/ADR-RES ovarian) was 0.964 µM, the TGI (NCI/ADR-RES ovarian) was greater than 100 µM and the GI50 (CAKI-1 renal) was 0.733 µM. The TGI (CAKI-1 renal) was greater than 93.1 µM, the GI50 (A549 NSCLC) was 1.27 µM and the TGI (A549 NSCLC) was greater than 100 µM. The GI50 (HCT-15 colon) was 0.62 µM, the TGI (HCT-15 colon) was greater than 100 µM and the GI50 (HCC-2998 colon) was greater than 20.4 µM. The TGI (HCC-2998 colon) was greater than 100 µM, the GI50 (NCI-H460 lung) was 0.402 µM and the TGI (NCI-H460 lung) was greater than 100 µM. The GI50 (K-562 leukemia) was 0.447 µM, the TGI (K-562 leukemia) was greater than 100 µM and the GI50 (HS 578T breast) was 3.68 µM. The TGI (HS 578T breast) was greater than 100 µM, the GI50 (SF-539 CNS) was 1.31 µM and the TGI (SF-539 CNS) was greater than 100 µM. For the same molecule, the GI50 (T-47D breast) was 5.89 µM, the TGI (T-47D breast) was greater than 100 µM and the GI50 (SNB-19 CNS) was 2.31 µM. It also gave a TGI (SNB-19 CNS) greater than 100 µM, a GI50 (SK-MEL-28 melanoma) of 4.86 µM and a TGI (SK-MEL-28 melanoma) greater than 100 µM. The GI50 (HCT-116 colon) was 0.724 µM, the TGI (HCT-116 colon) was greater than 100 µM and the GI50 (PC-3 prostate) was 3.67 µM. It also gave a TGI (PC-3 prostate) greater than 100 µM, a GI50 (NCI-H226 lung) of 2.97 µM and a TGI (NCI-H226 lung) greater than 100 µM. For the same molecule, the GI50 (IGROV1 ovarian) was 1.67 µM, the TGI (IGROV1 ovarian) was greater than 100 µM and the GI50 (RXF 393 renal) was 1.75 µM. The TGI (RXF 393 renal) was 26.8 µM, the GI50 (TK-10 renal) was greater than 20.9 µM and the TGI (TK-10 renal) was greater than 100 µM. The GI50 (MOLT-4 leukemia) was 1.51 µM, the TGI (MOLT-4 leukemia) was greater than 100 µM and the GI50 (RPMI-8226 leukemia) was 3.37 µM. For the same molecule, the TGI (RPMI-8226 leukemia) was greater than 100 µM, the GI50 (BT-549 breast) was 6.92 µM and the TGI (BT-549 breast) was greater than 100 µM. It also gave a GI50 (U251 CNS) of 2.64 µM, a TGI (U251 CNS) greater than 100 µM and a GI50 (MALME-3M melanoma) of 3.78 µM. It also gave a TGI (MALME-3M melanoma) greater than 100 µM, a GI50 (HL-60(TB) leukemia) of 1.23 µM and a TGI (HL-60(TB) leukemia) greater than 100 µM. For the same molecule, the GI50 (ACHN renal) was 1.85 µM, the TGI (ACHN renal) was greater than 100 µM and the GI50 (A498 renal) was 10.1 µM. It also gave a TGI (A498 renal) greater than 100 µM, a GI50 (KM12 colon) of 0.654 µM and a TGI (KM12 colon) greater than 100 µM. It also gave a GI50 (OVCAR-5 ovarian) of 9.85 µM, a TGI (OVCAR-5 ovarian) greater than 100 µM and a GI50 (SK-MEL-2 melanoma) of 3.76 µM. The TGI (SK-MEL-2 melanoma) was greater than 100 µM, the GI50 (M14 melanoma) was 1.24 µM and the TGI (M14 melanoma) was greater than 100 µM. It also gave a GI50 (786-0 renal) of 3.56 µM, a TGI (786-0 renal) greater than 100 µM and a GI50 (SN12C renal) of 2.22 µM. For the same molecule, the TGI (SN12C renal) was greater than 100 µM, the GI50 (OVCAR-4 ovarian) was 6.81 µM and the TGI (OVCAR-4 ovarian) was greater than 100 µM.
